Reference: patent publication US9795587B2, “Compounds for enhancing hypoxia inducible factor activity and methods of use” (Cornell Research Foundation, Inc., priority 2005, dated 2017)

Tests used:
[1] = system: hypoxia response element regulated reporter gene; test: Hypoxia response element (enolase promoter) luciferase reporter in cortical neurons; assay type: cell-based, rat; settings: 40 μM, positive control, FIG. 5
Description: FIG. 5. A cell permeant, peptide inhibitor of the HIF prolyl 4-hydroxylase, but not a mutant control, induces expression of HIF-dependent genes. […] The low molecular weight P4H inhibitor, FG-0041 (40 μM) was used as a positive control. To determine whether the Tat-HIF/ODD/wt peptide stabilizes HIF-1 leading to activation of HIF-1 dependent gene expression, the levels of a luciferase reporter gene that is regulated by a hypoxia response element found in the enolase gene promoter was monitored.

HIF-1 = test: HIF-luciferase reporter (enolase 1 promoter-luciferase) in stably transfected HT22 cells; assay type: cell-based; settings: HT22 murine hippocampal cells, FIG. 3
Description: HT22 murine hippocampal cells were stably transfected with an enolase 1 promoter-luciferase reporter construct and selected with puromycin. Tilorone analogues R-10,874-DA, R-11,567-DA, and R-9536-DA were tested for their ability to activate a HIF-luciferase reporter. Luciferase activity was measured using a Luciferase Assay System (PROMEGA) according to the manufacture's protocol.

HIF-1 target genes = test: Expression of HIF-1 target genes in rat cerebral cortex (real time RT-PCR); assay type: in vivo; settings: 100 mg/kg i.p., Sprague Dawley rats, FIG. 4
Description: HIF-1α protein levels were determined in nuclear extracts using a monoclonal anti-HIF-1α antibody (NOVUS Biologicals). Real time RT-PCR was performed in a ABI-7500 instruments using commercial Taqman gene expression assays (Applied BioSystems). Male Sprague Dawley rats, weighing 275-350 gm, were used in these experiments. For surgical procedures, anesthesia was induced with 5% isofluorane delivered in oxygen and maintained at 1.5% throughout surgery. Core body temperature was maintained at 37° C. by a homeothermic heating blanket. Animals were subjected to MCAo by the intraluminal filament method. The right external carotid artery was ligated, cauterized, and cut, and its branches were coagulated. A 35 mm length of 4-0 nylon monofilament (Ethicon) with a rounded tip was then inserted into the internal carotid artery via the proximal end of the external carotid artery stump. The filament was advanced 20 mm beyond the carotid artery bifurcation with slight resistance was encountered. The tilorone analogues R-10,874-DA, R-11,567-DA, and R-9536-DA were injected 100 mg/kg i.p. 24 h pre-MCAo. Equivalent volume of saline was injected i.p. to control rats. Animals were sacrificed 24 h post-MCAo.

| induction of the HIF-dependent reporter gene [1] | SMILES | HIF-1 transcriptional activity (HIF-luciferase reporter) (HIF-1) | expression of HIF-1 target genes in the rat cerebral cortex (HIF-1 target genes) |
| --- | --- | --- | --- |
| stimulated | O=C(O)c1c[nH]c2c(ccc3cccnc32)c1=O [FG-0041] | – | – |
| – | CN(C)CCOc1ccc2c(=O)c3ccc(OCCN(C)C)cc3oc2c1.Cl.Cl [R-10,874-DA, 3,6-bis[2-(dimethylamino)ethoxy]-9h-xanthen-9-one dihydrochloride] | increase HIF-1 transcriptional activity | induce the expression of HIF-1 target genes |
| – | CN(C)CC(=O)c1ccc2oc3ccc(C(=O)CN(C)C)cc3c2c1.Cl.Cl.O [R-11,567-DA, 2,8-bis[dimethylaminoacetyl]dibenzofurin dihydrochloride hydrate] | increase HIF-1 transcriptional activity | induce the expression of HIF-1 target genes |
